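96-well plates; 48 h exposure; 5 concentrations. Endpoints by linear interpolation between flanking doses. Not reached: highest tested concentration assigned. At the GI50, growth is halved.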 Active and inactive are the calls of the source. Rule as the data show it: active = GI50 up to about 1.1 µM and inactive = higher.
Assays:
Experiment in all cases: NCI tumour cell line growth inhibition, 48 h
SF-539 = system: SF-539
SR = system: SR
RPMI-8226 = system: RPMI-8226
HT-29 = system: HT-29
A498 = system: A498
T47D = system: T47D
SNB-75 = system: SNB-75
HCT-15 = system: HCT-15
M14 = system: M14
786-0 = system: 786-0
MDA-N = system: MDA-N
SK-MEL-28 = system: SK-MEL-28
U-251 = system: U-251
NCI-H522 = system: NCI-H522
LOX IMVI = system: LOX IMVI
KM12 = system: KM12
MDA-MB-231 = system: MDA-MB-231
SW-620 = system: SW-620
CCRF-CEM = system: CCRF-CEM
Malme-3M = system: Malme-3M

Row | SMILES | GI50 (SF-539) | GI50 (SR) | GI50 (RPMI-8226) | GI50 (HT-29) | GI50 (A498) | GI50 (T47D) | GI50 (SNB-75) | GI50 (HCT-15) [µM] | GI50 (M14) | GI50 (786-0) | GI50 (MDA-N) | GI50 (SK-MEL-28) | GI50 (U-251) | GI50 (NCI-H522) | GI50 (LOX IMVI) | GI50 (KM12) | GI50 (MDA-MB-231) | GI50 (SW-620) | GI50 (CCRF-CEM) | GI50 (Malme-3M)
1 | O=C1C=C(NCC(c2ccccc2)c2ccccc2)C(=O)c2ncccc21 | 3.09 µM (inactive) | 1.63 µM (inactive) | 1.72 µM (inactive) | 7.45 µM (inactive) | 2.24 µM (inactive) | 3.08 µM (inactive) | 0.507 µM (active) | 0.504 | 1.61 µM (inactive) | 2.88 µM (inactive) | 1.6 µM (inactive) | 2.85 µM (inactive) | 2.05 µM (inactive) | 1.34 µM (inactive) | 1.11 µM (active) | 2.19 µM (inactive) | 2.67 µM (inactive) | 1.83 µM (inactive) | 2.64 µM (inactive) | 1.36 µM (inactive)
2 | CC(=O)N1c2ccccc2C2=NN(C)C(=N)SC21 (configuration not stated) | > 100 µM (inactive) | > 100 µM (inactive) | > 100 µM (inactive) | > 100 µM (inactive) | 66.7 µM (inactive) | 29.9 µM (inactive) | 56 µM (inactive) | > 100 | > 100 µM (inactive) | > 100 µM (inactive) | > 100 µM (inactive) | > 100 µM (inactive) | > 100 µM (inactive) | 67.8 µM (inactive) | > 100 µM (inactive) | > 100 µM (inactive) | > 100 µM (inactive) | > 100 µM (inactive) | > 100 µM (inactive) | 68.4 µM (inactive)
3 | CCNc1nnc(-c2ccccc2Nc2ccccc2-c2nnc(NCC)s2)s1 | – | 47.8 µM (inactive) | 14 µM (inactive) | 10.9 µM (inactive) | 13.5 µM (inactive) | 5.32 µM (inactive) | 18.2 µM (inactive) | 4.37 | 14.5 µM (inactive) | 11 µM (inactive) | 9.73 µM (inactive) | 18.4 µM (inactive) | 11.4 µM (inactive) | 6.75 µM (inactive) | 8.05 µM (inactive) | 9.46 µM (inactive) | 8.02 µM (inactive) | 19.4 µM (inactive) | 4.18 µM (inactive) | 19.2 µM (inactive)
4 | CCCCCCCCCCCCCCCCCCOCC(O)COP(=O)(O)OCC1OC(n2ccc(N)nc2=O)C(O)C1O (configuration not stated) | 16.6 µM (inactive) | 17 µM (inactive) | 24.9 µM (inactive) | 22.8 µM (inactive) | 11 µM (inactive) | 62.5 µM (inactive) | 13 µM (inactive) | 15.5 | – | 10.9 µM (inactive) | 93.8 µM (inactive) | 57.5 µM (inactive) | 11.9 µM (inactive) | 13.4 µM (inactive) | 14.1 µM (inactive) | 17.1 µM (inactive) | 25.8 µM (inactive) | 35.6 µM (inactive) | 0.56 µM (active) | 7.05 µM (inactive)
5 | CN(C)C(=S)Oc1ccc2ccc(=O)oc2c1 | > 100 µM (inactive) | > 100 µM (inactive) | > 100 µM (inactive) | > 100 µM (inactive) | > 100 µM (inactive) | > 100 µM (inactive) | > 100 µM (inactive) | > 100 | > 100 µM (inactive) | > 100 µM (inactive) | > 100 µM (inactive) | > 100 µM (inactive) | > 100 µM (inactive) | > 100 µM (inactive) | > 100 µM (inactive) | > 100 µM (inactive) | > 100 µM (inactive) | > 100 µM (inactive) | – | > 100 µM (inactive)
6 | O=C1CN(/N=C/c2ccc(-c3ccc(F)cc3)o2)C(=O)N1 | 34.4 µM (inactive) | 24 µM (inactive) | 28 µM (inactive) | – | 25.2 µM (inactive) | > 100 µM (inactive) | – | 39 | 75.3 µM (inactive) | > 100 µM (inactive) | 16.9 µM (inactive) | 25.4 µM (inactive) | 89.3 µM (inactive) | 21.1 µM (inactive) | 26.6 µM (inactive) | 33.1 µM (inactive) | > 100 µM (inactive) | 43 µM (inactive) | > 100 µM (inactive) | 47.5 µM (inactive)
7 | Cc1nn(C(=O)c2ccccc2O)c2c1C(c1ccc3ccccc3c1O)SC(=N)N2 (configuration not stated) | 4.53 µM (inactive) | 4.53 µM (inactive) | 4.34 µM (inactive) | 9.55 µM (inactive) | 6.47 µM (inactive) | 1.87 µM (inactive) | 2.85 µM (inactive) | 4.26 | 6.21 µM (inactive) | 6.47 µM (inactive) | 3.44 µM (inactive) | 5.16 µM (inactive) | 3.66 µM (inactive) | – | 3.75 µM (inactive) | 7.46 µM (inactive) | 3.05 µM (inactive) | 4.61 µM (inactive) | 3.76 µM (inactive) | > 10 µM (inactive)
8 | Cn1c(=O)c2c(nc(NCCNc3nc4c(c(=O)n(C)c(=O)n4C)n3C)n2C)n(C)c1=O | – | > 100 µM (inactive) | – | > 100 µM (inactive) | > 100 µM (inactive) | > 100 µM (inactive) | > 100 µM (inactive) | > 100 | > 100 µM (inactive) | > 100 µM (inactive) | > 100 µM (inactive) | > 100 µM (inactive) | > 100 µM (inactive) | > 100 µM (inactive) | > 100 µM (inactive) | > 100 µM (inactive) | > 100 µM (inactive) | > 100 µM (inactive) | > 100 µM (inactive) | > 100 µM (inactive)

Source: ChEMBL document CHEMBL1201862, “PubChem BioAssay data set” (2004)
